Measured values taken from patent publication US8895585B2, “Nicotinamide derivative or salt thereof” (FUJIFILM Corporation, priority 2010, dated 2014).

Tests used:
[1] = target: T1, glutathione S-transferase (GST)-fused full-length human Syk protein (Homo sapiens, UniProt P43405); assay: Syk enzyme assay; assay type: biochemical; details: Syk enzyme assay, Test Example 1; read-out: IC50 of Syk-inhibitory activity
T1 construct: (GST)-fused full-length human Syk protein; GST (glutathione S-transferase); purchased Carna Biosciences
In short: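 GST-tagged full-length human Syk (baculovirus) preincubated with compound 15 min at room temperature (pH 7.0, 10 mM MgCl2), then reacted 40 min with 0.4 μM biotinylated peptide substrate and 27 μM ATP (final). Phosphorylation read by HTRF (615/665 nm) after EDTA stop; IC50 reported.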

THP-1 cells = assay: TNFα generation assay; assay type: cell-based, human; details: Homo sapiens, THP-1, THP-1 cells; Table 22; read-out: IC50 in TNFα generation assay
In short: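 THP-1 cells differentiated to macrophage-like cells with 10 ng/ml IFN-γ for 2 days, preincubated with compound 30 min at room temperature, then cultured 7 h on plates coated with human IgG (10 μg/ml). Secreted TNFα measured by ELISA or AlphaLISA.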

CCC[C@@H](Nc1nc(Nc2ccc(C)nc2)c(C(N)=O)cc1F)[C@H](C)N [Example 006-302, 6-(((2S,3R)-2-aminohexan-3-yl)amino)-5-fluoro-2-((6-methylpyridin-3-yl)amino)nicotinamide]
IC50 [1]: 10 to 50 nM
IC50 (THP-1 cells): 130 to 200 nM

CCC[C@@H](Nc1nc(Nc2cncc(C)c2)c(C(N)=O)cc1F)[C@H](C)N [Example 006-312, 6-(((2S,3R)-2-aminohexan-3-yl)amino)-5-fluoro-2-((5-methylpyridin-3-yl)amino)nicotinamide]
IC50 [1]: < 10 nM
IC50 (THP-1 cells): 65 to 130 nM

CCC[C@@H](Nc1nc(Nc2ccnc(-c3ccccc3F)c2)c(C(N)=O)cc1F)[C@H](C)N [Example 006-333, 6-(((2S,3R)-2-aminohexan-3-yl)amino)-5-fluoro-2-((2-(2-fluorophenyl)pyridin-4-yl)amino)nicotinamide]
IC50 [1]: < 10 nM
IC50 (THP-1 cells): 65 to 130 nM

CC[C@H](CN)Nc1nc(Nc2ccc3ncccc3c2)c(C(N)=O)cc1F [Example 39-2, (R)-6-((1-aminobutan-2-yl)amino)-5-fluoro-2-((quinolin-6-yl)amino)nicotinamide]
IC50 [1]: < 10 nM
IC50 (THP-1 cells): < 65 nM

CCC[C@@H](Nc1nc(Nc2ccnc(OC)c2)c(C(N)=O)cc1F)[C@@H](N)CC [Example 006-404, 6-(((3S,4R)-3-aminoheptan-4-yl)amino)-5-fluoro-2-((2-methoxypyridin-4-yl)amino)nicotinamide]
IC50 [1]: < 10 nM
IC50 (THP-1 cells): 130 to 200 nM

C[C@H](N)[C@H](Nc1nc(Nc2ccc3cnn(C)c3c2)c(C(N)=O)cc1F)C1CC1 [Example 006-370, 6-(((1R,2S)-2-amino-1-cyclopropylpropyl)amino)-5-fluoro-2-((1-methyl-1H-indazol-6-yl)amino)nicotinamide]
IC50 [1]: < 10 nM
IC50 (THP-1 cells): < 65 nM

NC(=O)c1cc(F)c(N[C@@H]2CCCC[C@@H]2N)nc1Nc1cnc2ncsc2c1 [Example 004-026]
IC50 [1]: < 10 nM
IC50 (THP-1 cells): < 65 nM

CCC[C@@H](Nc1nc(Nc2cncc(Cl)c2)c(C(N)=O)cc1F)[C@H](C)N [Example 006-297, 6-(((2S,3R)-2-aminohexan-3-yl)amino)-2-((5-chloropyridin-3-yl)amino)-5-fluoronicotinamide]
IC50 [1]: < 10 nM
IC50 (THP-1 cells): 65 to 130 nM

NC(=O)c1cc(F)c(N[C@@H]2CCCC[C@@H]2N)nc1Nc1cncc(N2CCOCC2)c1 (relative stereo) [Example 004-051]
IC50 [1]: < 10 nM
IC50 (THP-1 cells): 130 to 200 nM

COc1cccc(-c2cncc(Nc3nc(N[C@@H](CN)CC(C)C)c(F)cc3C(N)=O)c2)c1F [Example 006-318, (R)-6-((1-amino-4-methylpentan-2-yl)amino)-5-fluoro-2-((5-(2-fluoro-3-methoxyphenyl)pyridin-3-yl)amino)nicotinamide]
IC50 [1]: 10 to 50 nM
IC50 (THP-1 cells): 130 to 200 nM

CC(C)C[C@H](CN)Nc1nc(Nc2ccc3nccnc3c2)c(C(N)=O)cc1F [Example 006-212, (R)-6-((1-amino-4-methylpentan-2-yl)amino)-5-fluoro-2-((quinoxalin-6-yl)amino)nicotinamide]
IC50 [1]: < 10 nM
IC50 (THP-1 cells): 130 to 200 nM

CC[C@@H](Nc1nc(Nc2ccc3c(c2)c(C2CC2)nn3C)c(C(N)=O)cc1F)[C@H](C)N [Example 006-547, 6-(((2S,3R)-2-aminopentan-3-yl)amino)-2-((3-cyclopropyl-1-methyl-1H-indazol-5-yl)amino)-5-fluoronicotinamide]
IC50 [1]: < 10 nM
IC50 (THP-1 cells): 65 to 130 nM

COc1ccc2cc(Nc3nc(N[C@@H](CN)CC(C)C)c(F)cc3C(N)=O)cnc2c1 [Example 006-176, (R)-6-((1-amino-4-methylpentan-2-yl)amino)-5-fluoro-2-((7-methoxyquinolin-3-yl)amino)nicotinamide]
IC50 [1]: < 10 nM
IC50 (THP-1 cells): 65 to 130 nM

C[C@H](N)[C@@H](C)Nc1nc(Nc2ccc3ncccc3c2)c(C(N)=O)cc1F [Example 006-275, 6-(((2R,3S)-3-aminobutan-2-yl)amino)-5-fluoro-2-((quinolin-6-yl)amino)nicotinamide]
IC50 [1]: < 10 nM
IC50 (THP-1 cells): < 65 nM

Cc1cc(Nc2nc(N[C@@H]3CCCC[C@@H]3N)c(F)cc2C(N)=O)cnc1-n1cccn1 [Example 006-499, 6-(((1R,2S)-2-aminocyclohexyl)amino)-5-fluoro-2-((5-methyl-6-(1H-pyrazol-1-yl)pyridin-3-yl)amino)nicotinamide]
IC50 [1]: 10 to 50 nM
IC50 (THP-1 cells): 130 to 200 nM

CC(C)C[C@H](CN)Nc1nc(Nc2ccnc(-c3ccccc3F)c2)c(C(N)=O)cc1F [Example 006-324, (R)-6-((1-amino-4-methylpentan-2-yl)amino)-5-fluoro-2-((2-(2-fluorophenyl)pyridin-4-yl)amino)nicotinamide]
IC50 [1]: < 10 nM
IC50 (THP-1 cells): 130 to 200 nM

C[C@H](N)[C@@H](CC1CC1)Nc1nc(Nc2ccc3c(c2)c(F)nn3CC(F)F)c(C(N)=O)cc1F [Example 006-510, 6-(((2R,3S)-3-amino-1-cyclopropylbutan-2-yl)amino)-2-((1-(2,2-difluoroethyl)-3-fluoro-1H-indazol-5-yl)amino)-5-fluoronicotinamide]
IC50 [1]: < 10 nM
IC50 (THP-1 cells): 65 to 130 nM

CC(C)C[C@H](CN)Nc1nc(Nc2cncc(-c3ccccc3F)c2)c(C(N)=O)cc1F [Example 006-316, (R)-6-((1-amino-4-methylpentan-2-yl)amino)-5-fluoro-2-((5-(2-fluorophenyl)pyridin-3-yl)amino)nicotinamide]
IC50 [1]: 10 to 50 nM
IC50 (THP-1 cells): 130 to 200 nM

NC(=O)c1cc(F)c(N[C@@H]2CCCC[C@@H]2N)nc1Nc1cncc(C2CC2)c1 [Example 006-167, 6-(((1R,2S)-2-aminocyclohexyl)amino)-2-((5-cycylopropylpyridin-3-yl)amino)-5-fluoronicotinamide]
IC50 [1]: < 10 nM
IC50 (THP-1 cells): < 65 nM

CCn1nc(F)c2cc(Nc3nc(N[C@H](CC4CC4)[C@H](C)N)c(F)cc3C(N)=O)ccc21 [Example 006-509, 6-(((2R,3S)-3-amino-1-cyclopropylbutan-2-yl)amino)-2-((1-ethyl-3-fluoro-1H-indazol-5-yl)amino)-5-fluoronicotinamide]
IC50 [1]: < 10 nM
IC50 (THP-1 cells): 65 to 130 nM

NC(=O)c1cc(Cl)c(NC2CCCCC2N)nc1Nc1cnc2ccccc2c1 (stereo not drawn) [Example 035-001]
IC50 [1]: < 10 nM
IC50 (THP-1 cells): 65 to 130 nM

C[C@H](N)[C@@H](CC1CC1)Nc1nc(Nc2cncc3ccccc23)c(C(N)=O)cc1F [Example 006-354, 6-(((2R,3S)-3-amino-1-cyclopropylbutan-2-yl)amino)-5-fluoro-2-((isoquinolin-4-yl)amino)nicotinamide]
IC50 [1]: < 10 nM
IC50 (THP-1 cells): 65 to 130 nM

CCC[C@@H](Nc1nc(Nc2cccc3ncccc23)c(C(N)=O)cc1F)[C@H](C)N [Example 006-307, 6-(((2S,3R)-2-aminohexan-3-yl)amino)-5-fluoro-2-(quinolin-5-ylamino)nicotinamide]
IC50 [1]: < 10 nM
IC50 (THP-1 cells): 65 to 130 nM

NC(=O)c1cc(F)c(N[C@@H]2CCCC[C@@H]2N)nc1Nc1cncc2cccnc12 [Example 004-004]
IC50 [1]: 10 to 50 nM
IC50 (THP-1 cells): 65 to 130 nM

CC[C@@H](Nc1nc(Nc2ccc3ncccc3c2)c(C(N)=O)cc1F)[C@H](C)N [Example 006-178, 6-(((2S,3R)-2-aminopentan-3-yl)amino)-5-fluoro-2-((quinolin-6-yl)amino)nicotinamide]
IC50 [1]: < 10 nM
IC50 (THP-1 cells): < 65 nM

NC(=O)c1cc(F)c(NC2CCCCC2N)nc1Nc1ccc(C2CC2)nc1 (stereo not drawn) [Example 002-142]
IC50 [1]: < 10 nM
IC50 (THP-1 cells): 130 to 200 nM

CC[C@H](N)[C@@H](CC)Nc1nc(Nc2ccc3c(cnn3C)c2)c(C(N)=O)cc1F [Example 006-364, 6-(((3R,4S)-4-aminohexan-3-yl)amino)-5-fluoro-2-((1-methyl-1H-indazol-5-yl)amino)nicotinamide]
IC50 [1]: < 10 nM
IC50 (THP-1 cells): 65 to 130 nM

Cc1nn(CCF)c2cc(Nc3nc(N[C@H](CC4CC4)[C@H](C)N)c(F)cc3C(N)=O)ccc12 [Example 006-488, 6-(((2R,3S)-3-amino-1-cyclopropylbutan-2-yl)amino)-5-fluoro-2-((1-(2-fluoroethyl)-3-methyl-1H-indazol-6-yl)amino)nicotinamide]
IC50 [1]: < 10 nM
IC50 (THP-1 cells): 65 to 130 nM

CCOc1cc(Nc2nc(N[C@@H](CN)CC(C)C)c(F)cc2C(N)=O)ccn1 [Example 006-145, (R)-6-((1-amino-4-methylpentan-2-yl)amino)-2-((2-ethoxypyridin-4-yl)amino)-5-fluoronicotinamide]
IC50 [1]: < 10 nM
IC50 (THP-1 cells): 65 to 130 nM

COc1cc(Nc2nc(N[C@@H]3CCCC[C@@H]3N)c(F)cc2C(N)=O)c2cc[nH]c2n1 (relative stereo) [Example 004-065, 6-(cis-2-aminocyclohexylamino)-5-fluoro-2-((6-methoxy-1H-pyrrolo[2,3-b]pyridin-4-yl)-amino)nicotinamide]
IC50 [1]: < 10 nM
IC50 (THP-1 cells): 65 to 130 nM

COc1ccc(F)c(-c2cncc(Nc3nc(N[C@@H]4CCCC[C@@H]4N)c(F)cc3C(N)=O)c2)c1 (relative stereo) [Example 004-199, 6-(cis-2-aminocyclohexylamino)-5-fluoro-2-((5-(2-fluoro-5-methoxyphenyl)pyridin-3-yl)amino)nicotinamide]
IC50 [1]: < 10 nM
IC50 (THP-1 cells): 130 to 200 nM

NC(=O)Nc1cccc2cc(Nc3nc(N[C@@H]4CCCC[C@@H]4N)c(F)cc3C(N)=O)cnc12 (relative stereo) [Example 004-064]
IC50 [1]: 100 to 1000 nM
IC50 (THP-1 cells): < 65 nM

NC(=O)c1cc(F)c(N[C@@H]2CCCC[C@@H]2N)nc1Nc1cncc(-c2ccc(N)cc2)c1 (relative stereo) [Example 004-218, 6-(cis-2-aminocyclohexylamino)-2-((5-(4-aminophenyl)pyridin-3-yl)amino)-5-fluoronicotinamide]
IC50 [1]: < 10 nM
IC50 (THP-1 cells): 65 to 130 nM
